Measured values from PubChem BioAssay AID463199 (Broad Institute, 2010).
The source made the active and inactive calls.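 The calls were made as follows: active = AC50, the dose giving half-maximal effect, exceeds a fixed cutoff for a compound that rescues yeast growth under heat; inactive = the rest, inconclusive results apart.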

test system: S. cerevisiae Burl-1 ts mutant growth, BacTiter-Glo, 38.5C 24 h; test: restored growth of temperature-sensitive Burl-1 yeast – whole organism, S. cerevisiae, Burl-1 ts mutant, luminescence, counter-screen for SUMOylation pathway inhibitor project, dose response (AID 463199)

SMILES | AC50
Cc1nn(-c2ccccc2)c(N)c1N=Nc1cccc(S(=O)(=O)N2CCOCC2)c1 | > 42 µM (inactive)
CCCCC(=O)NC(=S)Nc1cccc(C(=O)O)c1 | > 42 µM (inactive)
CCOC(=O)c1ccc(NC(=O)CC2Sc3ncnn3C2=O)cc1 (centres undefined) | > 42 µM (inactive)
O=c1[nH]cnc2cc(Cl)ccc12 | 4 µM
CN(C)/C(CN1CCCCC1)=C1\N=C(c2ccccc2)OC1=O | > 42 µM (inactive)
O=[N+]([O-])c1cncc([N+](=O)[O-])c1Nc1ccccc1Cl | > 42 µM (inactive)
CC(=O)Nc1cccc(C(=O)OCC(=O)NCc2ccc(F)cc2)c1 | > 42 µM (inactive)
O=C(O)CCSc1ccc([N+](=O)[O-])cc1[N+](=O)[O-] | > 42 µM (inactive)
N=c1sccn1CC(=O)Nc1cccc(S(N)(=O)=O)c1 | > 42 µM (inactive)
CCN1C(=NCCCCO)N[C@@H](c2cccc(C(F)(F)F)c2)C(C(=O)OC)=C1C | > 42 µM (inactive)
CC(C)(C)NC(=S)NCc1cccnc1 | > 42 µM (inactive)
CSCCc1nc(SCC(=O)Nc2nnc(C)s2)[nH]c1C | > 42 µM (inactive)
Cc1sc2nc(CN3CCCC3)nc(NCc3ccncc3)c2c1C | > 42 µM (inactive)
CCNC(=S)Nc1ccc(C)c(S(=O)(=O)Nc2ccccc2OC)c1 | > 42 µM (inactive)
COC(=O)[C@@H]1C[C@@H]2CC[C@@H](O)C[C@@H]2N1Cc1ccc(N2CCN(C)CC2)cc1 | > 42 µM (inactive)
COCCCNCC(O)COc1cccc2[nH]c(C)cc12 (centres undefined) | > 42 µM (inactive)
CCOC(=O)C1CCN(C(=O)c2ccc3c(c2)NC(=O)/C(=C/c2ccccc2)S3)CC1 | > 42 µM (inactive)
Cc1c(NC(=O)c2cc(-c3ccccc3O)on2)c(=O)n(-c2ccccc2)n1C | > 42 µM (inactive)
CN(C)CC/C=C1\c2ccccc2Sc2ccc(Cl)cc21 | > 42 µM (inactive)
O=C(NCc1ccccc1Cl)C(=O)NCC1CCCN1S(=O)(=O)c1cccs1 (centres undefined) | > 42 µM (inactive)
O=C(OCC(=O)N1CCN(Cc2ccccc2)CC1)c1ccc(Cl)cc1 | > 42 µM (inactive)
CCCCOC(=O)/C(=C/C=C/c1ccccc1)NC(=O)c1ccccc1 | > 42 µM (inactive)
COc1ccc(/C=N/NC(=O)CCC(=O)Nc2ccccc2)cc1OC | > 42 µM (inactive)
O=C(OCc1ccccc1)c1cccc(-c2nnn(Cc3ccccc3)n2)c1 | > 42 µM (inactive)
N#Cc1c(Cn2cncn2)nc(=O)n(-c2ccc(Cl)cc2)c1N | > 42 µM (inactive)

SMILES | AC50
CC1(C)CC(=O)c2cnc(NC(=O)CSc3nc4ccccc4o3)nc2C1 | > 42 µM (inactive)
CCOc1ccccc1NC(=O)CSc1nc(N)c(C#N)cc1C#N | > 42 µM (inactive)
COc1ccc(C(=O)CC(=O)C(=O)Nc2ccc(C)c(C)c2)cc1 | > 42 µM (inactive)
COc1ccccc1/C=C/C(=O)NC(=S)N1CCOCC1 | > 42 µM (inactive)
CN(C)C(=O)CCN1CCOCC1 | > 42 µM (inactive)
Cc1cc(CNC(=O)C2CCC(=O)N(Cc3ccccc3F)C2)on1 (centres undefined) | > 42 µM (inactive)
Cc1cc(=O)n2[nH]c(-c3ccc(F)cc3)nc2n1 | > 42 µM (inactive)
Cc1c(NC(=O)C(C)Sc2nnc(-c3ccccc3)o2)c(=O)n(-c2ccccc2)n1C (centres undefined) | > 42 µM (inactive)
CN(c1cccnc1)c1ncnc2[nH]ncc12 | > 42 µM (inactive)
CN(C)S(=O)(=O)c1cc(NC(=O)CSc2nn(-c3ccc(Cl)cc3)c(=S)s2)ccc1Cl | > 42 µM (inactive)
CCOC(=O)c1c(C)n(C)c2cc(-c3ccc(C)cc3)c(O)cc12 | > 42 µM (inactive)
N#Cc1ccc(C23CC4(C2)[C@H](CN(Cc2ccc(C(F)(F)F)cc2)[C@@H]4c2ccccc2)C3c2ccc(C(F)(F)F)cc2)cc1 (some centres undefined) | > 42 µM (inactive)
CCN1CCCC1CNC(=O)Cn1cnc2ccc(S(=O)(=O)N3CCC(C)CC3)cc2c1=O (centres undefined) | > 42 µM (inactive)
CC(C)c1ccc2c(c1)CCC1C(C)(CN)CCCC21C (centres undefined) | > 42 µM (inactive)
CCOc1ccc(Br)cc1S(=O)(=O)N1CCC(C(N)=O)CC1 | > 42 µM (inactive)
COc1ccccc1CNC(=O)[C@H](C)NC(=O)C1CCN(C(=O)[C@@H](N)CC(C)C)CC1 | > 42 µM (inactive)
COc1ccc(-c2cc(C#N)nc(N3CCN(c4ccccc4)CC3)n2)cc1 | > 42 µM (inactive)
COc1ccc(-c2oc3ccc(-c4cc(OC)c(OC)c(OC)c4)cc3c2C(=O)c2ccc(OC)nc2)cc1 | > 42 µM (inactive)
COCCCN1C(=O)c2ccc(C(=O)Nc3ccc(OC)cc3OC)cc2C1=O | > 42 µM (inactive)
CCOc1cc(C(=S)N2CCOCC2)ccc1OC(=O)c1ccc(C)cc1 | > 42 µM (inactive)
COc1ccc(C(=O)NCCSc2ccc(C)cc2)cc1 | > 42 µM (inactive)
CCN1C(=NCC(C)C)N[C@@H](c2cccc(C(F)(F)F)c2)C(C(=O)OC)=C1C | > 42 µM (inactive)
CCCNc1nc2ccccc2c(=O)[nH]1 | > 42 µM (inactive)
CCC1C(c2ccccc2)NC(c2ccccc2)CC1(O)c1ccc(F)cc1 (centres undefined) | > 42 µM (inactive)
